ChEMBL document CHEMBL1151449, “In vitro activity of DC-159a, a new broad-spectrum fluoroquinolone, compared with that of other agents against drug-susceptible and -resistant pneumococci” (2008)
≈ marks a conversion by molar mass, not a printed value.

Legend:
Format in all cases: functional
Streptococcus pneumoniae [1] = test: (§1) Antibacterial activity against penicillin-, macrolide- and quinolone-susceptible Streptococcus pneumoniae HMC 63 harboring S81F mutation in quinolone-resistant determining regions of GyrA gene, D83Y mutation in QRDR of ParC gene and I460V mutation in QRDR of ParE gene after 34 passages with gemifloxacin measured after 10 daily antibiotic-free subculturing by multi-step resistance selection technique
Streptococcus pneumoniae [2] = test: (§2) Antibacterial activity against macrolide-, quinolone-susceptible and penicillin-intermediate Streptococcus pneumoniae HMC 99 harboring S81Y and S79Y mutation in quinolone-resistant determining regions of GyrA and ParC genes respectively after 41 passages with moxifloxacin measured after 10 daily antibiotic-free subculturing by multi-step resistance selection technique
Streptococcus pneumoniae [3] = test: Antibacterial activity against penicillin-resistant and quinolone-susceptible Streptococcus pneumoniae HMC 228 expressing ermB by broth microdilution method
Streptococcus pneumoniae [4] = test: Antibacterial activity against penicillin-intermediate Streptococcus pneumoniae […] by agar dilution method
Streptococcus pneumoniae [5] = test: Antibacterial activity against penicillin-, quinolone-resistant and macrolide-susceptible Streptococcus pneumoniae HMC 1058 harboring S79F, K137N mutation in quinolone-resistant determining regions of ParC gene and 460V mutation in QRDR of ParE gene by broth microdilution method
Streptococcus pneumoniae [6] = test: Antibacterial activity against penicillin- and quinolone-susceptible Streptococcus pneumoniae HMC 5055 expressing mefA after 50 passages by broth microdilution method
Streptococcus pneumoniae [7] = test: Antibacterial activity against Streptococcus pneumoniae HMC 1072 harboring S81F mutation in quinolone-resistant determining regions of GyrA gene, S79Y mutation in QRDR of ParC gene and I460V mutation in QRDR of ParE gene by agar dilution method
Streptococcus pneumoniae [8] = test: Antibacterial activity against Streptococcus pneumoniae HMC 2536 harboring S81Y mutation in quinolone-resistant determining regions of GyrA gene, S79F, K137N mutation in QRDR of ParC gene and I460V mutation in QRDR of ParE gene by agar dilution method
Streptococcus pneumoniae [9] = test: Antibacterial activity against penicillin-resistant Streptococcus pneumoniae […] by agar dilution method
Streptococcus pneumoniae [10] = test: Antibacterial activity against quinolone-susceptible and penicillin-intermediate Streptococcus pneumoniae HMC 5048 expressing mefA after 50 passages by broth microdilution method
Streptococcus pneumoniae [11] = test: Antibacterial activity against penicillin-, quinolone-resistant Streptococcus pneumoniae HMC 1541 harboring mutation in L4 protein by broth microdilution method
Streptococcus pneumoniae [12] = test: Antibacterial activity against Streptococcus pneumoniae HMC 1062 harboring S81F mutation in quinolone-resistant determining regions of GyrA gene, S79F mutation in QRDR of ParC gene and I460V mutation in QRDR of ParE gene by agar dilution method
Streptococcus pneumoniae [13] = test: as §1, with “penicillin-resistant” for “penicillin-, macrolide-”, “3583 expressing mefA and” for “63”, “D83N” for “D83Y”, “44” for “34”, “levofloxacin” for “gemifloxacin”
Streptococcus pneumoniae [14] = test: as §1, with “penicillin-resistant” for “penicillin-, macrolide-”, “3583 expressing mefA and” for “63”, “D83N” for “D83Y”, “49” for “34”, “DC-159a” for “gemifloxacin”
Streptococcus pneumoniae [15] = test: Antibacterial activity against Streptococcus pneumoniae HMC 1149 harboring S81F and S79Y mutation in quinolone-resistant determining regions of GyrA and ParC genes respectively showing efflux to ciprofloxacin, gemifloxacin by agar dilution method
Streptococcus pneumoniae [16] = test: Antibacterial activity against quinolone-susceptible and penicillin-intermediate Streptococcus pneumoniae HMC 5048 expressing mefA by broth microdilution method
Streptococcus pneumoniae [17] = test: Antibacterial activity against Streptococcus pneumoniae HMC 1541 harboring S81Y mutation in quinolone-resistant determining regions of GyrA gene, S79F, K137N mutation in QRDR of ParC gene and I460V mutation in QRDR of ParE gene by agar dilution method
Streptococcus pneumoniae [18] = test: Antibacterial activity against penicillin- and quinolone-susceptible Streptococcus pneumoniae HMC 5055 expressing mefA by broth microdilution method
Streptococcus pneumoniae [19] = test: Antibacterial activity against quinolone-resistant Streptococcus pneumoniae […] by agar dilution method
Streptococcus pneumoniae [20] = test: as §2, with “100” for “99”, “42” for “41”, “levofloxacin” for “moxifloxacin”
Streptococcus pneumoniae [21] = test: Antibacterial activity against quinolone-susceptible and penicillin-intermediate Streptococcus pneumoniae HMC 441 expressing ermB by broth microdilution method
Streptococcus pneumoniae [22] = test: Antibacterial activity against Streptococcus pneumoniae HMC 1146 harboring S81F mutation in quinolone-resistant determining regions of GyrA gene, and D435N mutation in QRDR of ParE gene by agar dilution method
Streptococcus pneumoniae [23] = test: Antibacterial activity against Streptococcus pneumoniae HMC 1074 harboring S81F mutation in quinolone-resistant determining regions of GyrA gene, S79F mutation in QRDR of ParC gene and I460V mutation in QRDR of ParE gene by agar dilution method
Streptococcus pneumoniae [24] = test: Antibacterial activity against Streptococcus pneumoniae HMC 1058 harboring S79F, K137N mutation in quinolone-resistant determining regions of ParC gene and 460V mutation in QRDR of ParE gene by agar dilution method
Streptococcus pneumoniae [25] = test: Antibacterial activity against Streptococcus pneumoniae HMC 1055 harboring S81F mutation in quinolone-resistant determining regions of GyrA gene, S79F, K137N mutation in QRDR of ParC gene and I460V mutation in QRDR of ParE gene by agar dilution method
Streptococcus pneumoniae [26] = test: Antibacterial activity against Streptococcus pneumoniae HMC 2538 harboring S81Y mutation in quinolone-resistant determining regions of GyrA gene, S79F, K137N mutation in QRDR of ParC gene and I460V mutation in QRDR of ParE gene showing efflux to ciprofloxacin, levofloxacin, gatifloxacin by agar dilution method
Streptococcus pneumoniae [27] = test: Antibacterial activity against Streptococcus pneumoniae HMC 1070 harboring S81F mutation in quinolone-resistant determining regions of GyrA gene, D83N mutation in QRDR of ParC gene and I460V mutation in QRDR of ParE gene by agar dilution method
Streptococcus pneumoniae [28] = test: Antibacterial activity against macrolide-, quinolone-susceptible and penicillin-intermediate Streptococcus pneumoniae HMC 99 by broth microdilution method
Streptococcus pneumoniae [29] = test: Antibacterial activity against quinolone-susceptible Streptococcus pneumoniae ATCC 49619 by agar dilution method
Streptococcus pneumoniae [30] = test: Antibacterial activity against Streptococcus pneumoniae HMC 1068 harboring E85K mutation in quinolone-resistant determining regions of GyrA gene, S79Y, K137N mutation in QRDR of ParC gene and I460V mutation in QRDR of ParE gene showing efflux to ciprofloxacin, levofloxacin by agar dilution method
Streptococcus pneumoniae [31] = test: Antibacterial activity against penicillin-, macrolide- and quinolone-susceptible Streptococcus pneumoniae HMC 63 after 50 passages by broth microdilution method
Streptococcus pneumoniae [32] = test: Antibacterial activity against penicillin-, macrolide-susceptible and quinolone-resistant Streptococcus pneumoniae HMC 1074 harboring S81F mutation in quinolone-resistant determining regions of GyrA gene, S79F mutation in QRDR of ParC gene and I460V mutation in QRDR of ParE gene after 50 passages by broth microdilution method

SMILES	MIC (Streptococcus pneumoniae [1])	MIC (Streptococcus pneumoniae [2])	MIC (Streptococcus pneumoniae [3])	MIC (Streptococcus pneumoniae [5])	MIC (Streptococcus pneumoniae [6])	MIC (Streptococcus pneumoniae [7])	MIC (Streptococcus pneumoniae [8])	MIC (Streptococcus pneumoniae [10])	MIC (Streptococcus pneumoniae [11])	MIC (Streptococcus pneumoniae [12])	MIC (Streptococcus pneumoniae [13])	MIC (Streptococcus pneumoniae [14])	MIC (Streptococcus pneumoniae [15])	MIC (Streptococcus pneumoniae [17])	MIC (Streptococcus pneumoniae [18])	MIC50 (Streptococcus pneumoniae [19])	MIC90 (Streptococcus pneumoniae [19])	MIC (Streptococcus pneumoniae [20])	MIC (Streptococcus pneumoniae [21])	MIC (Streptococcus pneumoniae [22])	further results
CO/N=C1\CN(c2nc3c(cc2F)c(=O)c(C(=O)O)cn3C2CC2)CC1CN (configuration not stated) [GEMIFLOXACIN]	0.5 µg/mL (≈ 1.28 µM)	1 µg/mL (≈ 2.57 µM)	0.06 µg/mL (≈ 0.154 µM)	0.12 µg/mL (≈ 0.308 µM)	0.06 µg/mL (≈ 0.154 µM)	0.5 µg/mL (≈ 1.28 µM)	0.125 µg/mL (≈ 0.321 µM)	0.125 µg/mL (≈ 0.321 µM)	0.5 µg/mL (≈ 1.28 µM)	1 µg/mL (≈ 2.57 µM)	0.25 µg/mL (≈ 0.642 µM)	4 µg/mL (≈ 10.3 µM)	0.25 µg/mL (≈ 0.642 µM)	0.25 µg/mL (≈ 0.642 µM)	0.03 µg/mL (≈ 0.077 µM)	0.25 µg/mL (≈ 0.642 µM)	1 µg/mL (≈ 2.57 µM)	0.5 µg/mL (≈ 1.28 µM)	0.016 µg/mL (≈ 0.0411 µM)	0.5 µg/mL (≈ 1.28 µM)	MIC50 (Streptococcus pneumoniae [4]): 0.03 µg/mL (≈ 0.077 µM); MIC90 (Streptococcus pneumoniae [4]): 0.06 µg/mL (≈ 0.154 µM); MIC50 (Streptococcus pneumoniae [9]): 0.03 µg/mL (≈ 0.077 µM); MIC90 (Streptococcus pneumoniae [9]): 0.25 µg/mL (≈ 0.642 µM); MIC (Streptococcus pneumoniae [16]): 0.03 µg/mL (≈ 0.077 µM); MIC (Streptococcus pneumoniae [23]): 0.5 µg/mL (≈ 1.28 µM); MIC (Streptococcus pneumoniae [24]): 0.125 µg/mL (≈ 0.321 µM); MIC (Streptococcus pneumoniae [25]): 0.5 µg/mL (≈ 1.28 µM); MIC (Streptococcus pneumoniae [26]): 0.25 µg/mL (≈ 0.642 µM); MIC (Streptococcus pneumoniae [27]): 0.25 µg/mL (≈ 0.642 µM); MIC (Streptococcus pneumoniae [28]): 0.06 µg/mL (≈ 0.154 µM); MIC50 (Streptococcus pneumoniae [29]): 0.03 µg/mL (≈ 0.077 µM); MIC90 (Streptococcus pneumoniae [29]): 0.06 µg/mL (≈ 0.154 µM); MIC (Streptococcus pneumoniae [30]): 0.5 µg/mL (≈ 1.28 µM)
COc1c(N2C[C@@H]3CCCN[C@@H]3C2)c(F)cc2c(=O)c(C(=O)O)cn(C3CC3)c12 [MOXIFLOXACIN]	4 µg/mL (≈ 9.96 µM)	4 µg/mL (≈ 9.96 µM)	0.12 µg/mL (≈ 0.299 µM)	2 µg/mL (≈ 4.98 µM)	0.125 µg/mL (≈ 0.311 µM)	4 µg/mL (≈ 9.96 µM)	4 µg/mL (≈ 9.96 µM)	0.125 µg/mL (≈ 0.311 µM)	4 µg/mL (≈ 9.96 µM)	4 µg/mL (≈ 9.96 µM)	4 µg/mL (≈ 9.96 µM)	2 µg/mL (≈ 4.98 µM)	0.25 µg/mL (≈ 0.623 µM)	2 µg/mL (≈ 4.98 µM)	0.25 µg/mL (≈ 0.623 µM)	4 µg/mL (≈ 9.96 µM)	4 µg/mL (≈ 9.96 µM)	4 µg/mL (≈ 9.96 µM)	0.12 µg/mL (≈ 0.299 µM)	2 µg/mL (≈ 4.98 µM)	MIC (Streptococcus pneumoniae [31]): 0.25 µg/mL (≈ 0.623 µM); MIC (Streptococcus pneumoniae [32]): 8 µg/mL (≈ 19.9 µM); MIC (Streptococcus pneumoniae [23]): 2 µg/mL (≈ 4.98 µM); MIC (Streptococcus pneumoniae [24]): 0.5 µg/mL (≈ 1.25 µM); MIC (Streptococcus pneumoniae [25]): 4 µg/mL (≈ 9.96 µM); MIC (Streptococcus pneumoniae [26]): 2 µg/mL (≈ 4.98 µM); MIC (Streptococcus pneumoniae [27]): 4 µg/mL (≈ 9.96 µM); MIC (Streptococcus pneumoniae [30]): 4 µg/mL (≈ 9.96 µM)
